Literature values, collected in patent US20230390251A1, “METHODS OF TREATING RIBONUCLEOTIDE REDUCTASE-RELATED DISEASES WITH A RIBONUCLEOTIDE REDUCTASE INHIBITOR” (TAIHO PHARMACEUTICAL CO., LTD., priority 2020, published 2023).

Tests used:
[1] = from the literature (NPL 10); off-target effect on Fe ion-containing proteins; cited from earlier work
[2] = target: T1, Ribonucleotide reductase (RNR) (Homo sapiens, UniProt P23921+P31350); details: from the literature (NPL 7; PL 1); cited from earlier work
T1 sequence (P23921 1-792): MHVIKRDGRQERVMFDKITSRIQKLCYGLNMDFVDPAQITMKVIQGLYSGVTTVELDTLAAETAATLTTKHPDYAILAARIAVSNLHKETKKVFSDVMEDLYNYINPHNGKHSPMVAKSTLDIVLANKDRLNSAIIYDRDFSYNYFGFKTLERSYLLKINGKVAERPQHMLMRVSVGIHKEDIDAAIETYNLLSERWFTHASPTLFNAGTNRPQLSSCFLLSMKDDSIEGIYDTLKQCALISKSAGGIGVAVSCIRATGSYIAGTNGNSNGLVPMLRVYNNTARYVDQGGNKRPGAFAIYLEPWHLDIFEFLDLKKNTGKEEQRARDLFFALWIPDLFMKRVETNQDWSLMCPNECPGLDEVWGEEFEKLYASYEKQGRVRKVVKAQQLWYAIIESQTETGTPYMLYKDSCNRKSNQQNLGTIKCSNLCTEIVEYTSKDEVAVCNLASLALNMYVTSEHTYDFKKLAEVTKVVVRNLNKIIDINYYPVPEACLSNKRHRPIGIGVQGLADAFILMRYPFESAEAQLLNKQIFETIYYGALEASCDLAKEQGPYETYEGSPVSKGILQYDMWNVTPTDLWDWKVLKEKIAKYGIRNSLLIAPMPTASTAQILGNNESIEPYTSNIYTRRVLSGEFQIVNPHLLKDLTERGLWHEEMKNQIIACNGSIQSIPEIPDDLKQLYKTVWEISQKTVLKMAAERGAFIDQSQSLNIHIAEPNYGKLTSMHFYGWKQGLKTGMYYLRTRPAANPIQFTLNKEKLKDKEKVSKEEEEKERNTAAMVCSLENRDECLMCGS
T1 sequence (P31350 1-389): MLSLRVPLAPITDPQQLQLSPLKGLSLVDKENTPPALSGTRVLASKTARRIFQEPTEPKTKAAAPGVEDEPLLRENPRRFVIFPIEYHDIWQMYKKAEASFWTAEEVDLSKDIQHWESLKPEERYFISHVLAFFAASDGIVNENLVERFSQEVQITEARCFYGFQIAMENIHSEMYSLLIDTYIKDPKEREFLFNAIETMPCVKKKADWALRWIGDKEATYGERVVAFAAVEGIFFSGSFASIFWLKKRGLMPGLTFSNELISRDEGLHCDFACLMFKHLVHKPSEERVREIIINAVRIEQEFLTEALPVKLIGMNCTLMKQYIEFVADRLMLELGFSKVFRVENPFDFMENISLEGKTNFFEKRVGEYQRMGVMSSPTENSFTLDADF

Row | Structure (SMILES) | side effects in clinical cases [1] | RNR inhibitory activity [2]
1 | NC(=S)NN=Cc1ncccc1N [Compound 3-AP, 3-aminopyridine-2-carboxaldehyde thiosemicarbazone] | side effects such as hypoxia, dyspnea, methemoglobinemia | 
2 | NC(=O)NO [HU, hydroxyurea, reference compound] |  | weak
